Reference: US20130115220A1, “METHOD FOR PREVENTION OR TREATMENT OF METABOLIC SYNDROME” (DAINIPPON SUMITOMO PHARMA CO., LTD., priority 2010, published 2013)

Target: T1, FAS (Mus musculus, UniProt P19096)
T1 construct: endogenous in cells; host or cells: 3T3-L1 adipocytes (treated cells, then lysed)
Test: FAS enzyme activity of treated 3T3-L1 adipocytes
Format: cell-based
Details: 3T3-L1 cells, C75 25 μM, 6 days
Procedure: The influence of AIM on FAS activity of adipocyte or adipose tissue was examined. FAS activity was measured by the method of Kelley (Kelley et al., Biochem. J., 1986, 235:87-90) with slight modification. 3T3-L1 adipocytes, or lysates of adipose tissue of obese mice was mixed with acetyl-CoA and NADPH (0.2 M […] phosphate buffer [pH 7.0] containing 0.4 mM EDTA), and the mixture was placed in a spectrophotometer cuvette and maintained at 30° C. 20 μl of malonyl-CoA solution (0.2 mM) was added to start an enzyme reaction and decrease of OD was measured at a chart speed 2 cm/min. Based on the results, the enzyme activity of FAS was evaluated using the molar extinction coefficient of […] NADPH as 6220.
First, the FAS activity of 3T3-L1 cells treated for 6 days in the presence or absence of rAIM (5 μg/ml), and in the presence of C75 (25 μM) was measured. Moreover, the FAS activity of adipose tissues of AIM^+/+ mice and AIM^−/− mice and the FAS activity of adipose tissue of AIM^−/− mice administered with rAIM or BSA 3 hr before by intraadipose topical injection are shown in FIGS. 28 and 29, respectively.
All mice were fed with HFD for 20 weeks. The samples were dissolved (lysed) and the FAS activity was measured. The data was converted to that based on FAS protein, according to the results of WB performed using the same sample.

T1 sequence (P19096 whole entry): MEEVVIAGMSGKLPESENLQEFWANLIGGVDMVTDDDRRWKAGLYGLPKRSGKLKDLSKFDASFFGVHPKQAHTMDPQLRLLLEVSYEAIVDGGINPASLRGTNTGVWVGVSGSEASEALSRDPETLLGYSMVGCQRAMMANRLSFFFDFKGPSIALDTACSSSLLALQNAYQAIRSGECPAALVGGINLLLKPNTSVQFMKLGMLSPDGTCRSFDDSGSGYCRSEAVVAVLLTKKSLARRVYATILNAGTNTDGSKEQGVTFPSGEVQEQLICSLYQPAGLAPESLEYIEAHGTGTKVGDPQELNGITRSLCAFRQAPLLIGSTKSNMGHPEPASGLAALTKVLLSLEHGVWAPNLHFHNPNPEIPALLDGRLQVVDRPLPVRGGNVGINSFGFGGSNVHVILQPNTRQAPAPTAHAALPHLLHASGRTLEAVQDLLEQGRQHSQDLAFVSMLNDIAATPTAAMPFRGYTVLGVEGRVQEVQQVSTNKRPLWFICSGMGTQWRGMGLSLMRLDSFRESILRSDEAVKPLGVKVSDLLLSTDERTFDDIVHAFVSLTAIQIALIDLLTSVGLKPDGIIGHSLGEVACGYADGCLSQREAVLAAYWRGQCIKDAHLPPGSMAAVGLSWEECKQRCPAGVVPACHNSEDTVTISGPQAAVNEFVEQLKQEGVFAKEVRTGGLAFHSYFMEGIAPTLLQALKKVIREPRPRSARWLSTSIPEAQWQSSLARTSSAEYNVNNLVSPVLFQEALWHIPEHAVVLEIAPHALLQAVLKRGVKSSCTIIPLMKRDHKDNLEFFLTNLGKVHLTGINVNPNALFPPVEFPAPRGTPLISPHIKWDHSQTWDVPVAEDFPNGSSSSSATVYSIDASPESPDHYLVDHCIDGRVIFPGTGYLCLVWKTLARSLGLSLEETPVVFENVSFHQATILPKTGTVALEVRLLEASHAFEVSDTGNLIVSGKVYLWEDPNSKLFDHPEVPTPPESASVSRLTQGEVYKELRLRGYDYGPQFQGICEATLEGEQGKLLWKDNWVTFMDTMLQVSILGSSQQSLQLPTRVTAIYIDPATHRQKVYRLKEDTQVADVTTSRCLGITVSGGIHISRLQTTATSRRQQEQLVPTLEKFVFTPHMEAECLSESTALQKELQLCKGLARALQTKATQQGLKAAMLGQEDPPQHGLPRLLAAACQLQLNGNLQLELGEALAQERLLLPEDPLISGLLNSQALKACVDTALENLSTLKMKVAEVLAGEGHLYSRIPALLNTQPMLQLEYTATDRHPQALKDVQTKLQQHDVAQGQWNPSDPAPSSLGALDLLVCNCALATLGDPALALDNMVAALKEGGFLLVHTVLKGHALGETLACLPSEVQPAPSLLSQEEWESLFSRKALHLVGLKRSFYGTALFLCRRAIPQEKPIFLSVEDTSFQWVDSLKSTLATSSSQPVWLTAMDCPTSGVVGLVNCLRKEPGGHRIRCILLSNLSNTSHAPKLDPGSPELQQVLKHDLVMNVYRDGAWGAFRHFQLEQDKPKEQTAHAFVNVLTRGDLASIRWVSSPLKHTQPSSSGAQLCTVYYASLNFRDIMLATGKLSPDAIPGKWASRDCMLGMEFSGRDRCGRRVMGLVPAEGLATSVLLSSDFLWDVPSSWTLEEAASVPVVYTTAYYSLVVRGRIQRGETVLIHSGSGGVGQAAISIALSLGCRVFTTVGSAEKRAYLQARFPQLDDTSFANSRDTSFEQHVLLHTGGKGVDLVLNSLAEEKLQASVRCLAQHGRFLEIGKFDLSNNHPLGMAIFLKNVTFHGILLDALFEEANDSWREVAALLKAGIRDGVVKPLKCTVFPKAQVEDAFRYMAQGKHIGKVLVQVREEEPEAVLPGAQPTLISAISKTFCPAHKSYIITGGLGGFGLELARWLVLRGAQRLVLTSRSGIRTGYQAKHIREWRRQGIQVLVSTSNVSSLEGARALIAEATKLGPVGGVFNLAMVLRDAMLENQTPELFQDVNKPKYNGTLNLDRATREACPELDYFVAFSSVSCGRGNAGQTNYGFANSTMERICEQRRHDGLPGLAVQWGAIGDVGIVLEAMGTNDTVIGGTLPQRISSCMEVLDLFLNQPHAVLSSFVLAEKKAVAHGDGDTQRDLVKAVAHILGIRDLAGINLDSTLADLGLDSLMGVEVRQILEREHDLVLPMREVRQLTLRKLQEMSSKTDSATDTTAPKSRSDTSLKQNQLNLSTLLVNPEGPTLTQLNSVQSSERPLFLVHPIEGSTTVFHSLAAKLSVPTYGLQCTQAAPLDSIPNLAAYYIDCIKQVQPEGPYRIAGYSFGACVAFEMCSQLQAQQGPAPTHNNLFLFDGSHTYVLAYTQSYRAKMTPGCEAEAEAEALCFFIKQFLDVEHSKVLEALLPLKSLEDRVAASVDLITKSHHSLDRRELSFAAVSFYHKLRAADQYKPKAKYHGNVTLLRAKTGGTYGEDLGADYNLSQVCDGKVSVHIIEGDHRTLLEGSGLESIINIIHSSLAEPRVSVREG

C=C1C(=O)OC(CCCCCCCC)C1C(=O)O (stereo not shown) [C75, reference compound]
FAS activity, level of suppression compared with rAIM: the same
